These results are taken from US20250275944A1, “RELATIVE UNDERSUPPLY OF AN AMYLOID BETA AGGREGATION INHIBITOR FOR IMPROVED DETOXIFYING EFFECTS” (Galimedix Therapeutics Inc, priority 2022, published 2025).

In experiment [1] the target is T1, oligomeric Aβ1-42 (Homo sapiens, UniProt P05067).
T1 construct: Amyloid beta Aβ1-42 has been injected into brain ventricles at a concentration that strongly suppresses LTP; host or cells: peptide solution injected into anesthetized rats
The experiment in a line: In vivo LTP in anesthetized rats after i.c.v. oligomeric Aβ1-42. Set-up: species or system rat. The note with it: for PS amplitude 80-90 min after LTP induction: Aβ1-42 alone 138.1±4.1, vehicle 179.2±8.7. The method, then:
FIG. 3 Represents a graphical illustration of compound (1)'s dose-dependent effects on in vivo LTP in anesthetized rats at very low concentrations. Given are normalized LTP of population spike (PS) amplitude at 80-90 min post theta burst stimulation (TBS). Compound (1) has been administered s.c. at dose of 0.08 mg/kg, 0.4 mg/kg, and 2.0 mg/kg. Amyloid beta Aβ1-42 has been injected into brain ventricles at a concentration that strongly suppresses LTP (black column). […] The aim of this experiment was to evaluate the dose-dependent effects of compound (1) on in vivo LTP in anesthetized rats at very low concentrations. Compound (1) has been administered s.c. at dose of 0.08 mg/kg, 0.4 mg/kg, and 2.0 mg/kg. Amyloid beta Aβ1-42 has been injected into brain ventricles at a concentration that strongly suppresses LTP. […] In animals subject to intracerebroventricular (i.c.v.) injection of 6 μL oligomeric Aβ1-42 solution (1.67 mM) significant deficits in LTP were observed. (FIG. 3). At the end of the recording period, 80-90 min after LTP induction, the PS amplitude following i.c.v. administration of oligomeric Aβ1-42 measured 138.1±4.1% of baseline (n=18), compared to 179.2±8.7% in PBS-injected animals (n=12). In animals subjected to i.c.v injection of 6 μL oligomeric Aβ1-42, 3 different s.c. doses of compound (1), namely 0.08, 0.4 and 2 mg/kg, were administrated before i.c.v. injection of oligomeric Aβ1-42. […] At the end of the recording period, 80-90 min after LTP induction, the PS amplitude following s.c. administration of compound (1) and i.c.v. administration of oligomeric Aβ1-42 measured 170.0±11.9% of baseline (n=7) for the 2 mg/kg dose, 174.7±16.0% of baseline (n=6) for the 0.4 mg/kg dose, and 139.6±13.1% of baseline (n=4) for the 0.08 mg/kg dose, compared to 179.2±8.7% in vehicle-treated controls (n=12) and 138.1±4.1% i.c.v. oligomeric Aβ1-42-injected animals (n=18).

The target of experiment [2] is T2, Aβ1-42 oligomers (Homo sapiens, UniProt P05067).
T2 construct: host or cells: peptide added to the superfusion solution of hippocampal slices
T2 sequence (P05067 672-713 limits assumed): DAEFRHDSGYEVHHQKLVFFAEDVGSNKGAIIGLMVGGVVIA
As to the kind of experiment: In vitro LTP in hippocampal brain slices superfused with 50 nM Aβ1-42. Also on record: species or system mice. The note with it: for effect on Aβ1-42 toxicity in in vitro LTP: 50 nM Aβ1-42; for Relative effect size (blocking Aβ1-42 toxicity): control LTP = 100%, Aβ1-42 alone = 0%. The method, then:
FIGS. 4A-B. FIG. 4A Illustrates plots from in vitro LTP experiments using rat brain slices that were superfused at 23° C. with 50 nM Aβ1-42 and/or with 10 nM compound (1). The compound (1) solution was added for 90 min before HFS was delivered in the first input (dark grey circles). […] To ensure the validity of the Aβ1-42-mediated effect, interleaved experiments with Aβ1-42 (50 nM, closed circles, n=12) were additionally performed in separate slices. […] Representative field excitatory postsynaptic potentials ([…]) are shown on top. FIG. 4B Represents a graphical illustration of compound (1)'s dose-dependent effects on in vitro LTP in rat brain slices based on LTP experiments shown in FIG. 4A. Toxic Aβ1-42 oligomers formed from 50 nM amyloid beta Aβ1-42 monomers block the LTP response almost entirely (black column). […] This refutes the previous scientific status, which called for an excess of the detoxifying agent. Data are shown as means of 5 experiments (n=5)±standard deviations. For the long-term potentiation (LTP) experiments brain slices from 2 months old mice were used. Transverse hippocampal slices (350 μm thick) were obtained after decapitation under isoflurane-anesthesia. All slices were placed in a holding chamber for at least 60 min and were then transferred to a super fusing chamber for extracellular recordings. The flow rate of the solution through the chamber was 4 ml/min. […] All experiments were performed at room temperature. Aβ1-42 stock solution in DMSO was added to the bath solution to give a final concentration of 50 nM. Extracellular recordings of field excitatory postsynaptic potentials (fEPSPs) were obtained from the dendritic region of the CA1 region of the hippocampus using glass micropipettes filled with superfusion solution. For all recordings both stimulating electrodes were used to utilize the input specificity of LTP and thereby allow the measurement of an internal control within the same slice. Steady baseline recordings were made for at least 30 minutes before application of tetanic stimuli. For LTP induction, high-frequency stimulation (HFS) conditioning pulses (100 Hz/1 s; 4-5 V) were applied to the Schaffer collateral commissural pathway via two independent inputs. Before inducing LTP, Aβ1-42 has been applied for 90 min. HFS was delivered from one of the electrodes under conditions in the presence of Compound (1) and potentiation of the responses was monitored for at least 60 min after the tetanus. Either Aβ1-42 was then applied via the bath solution for 90 min before attempting to induce LTP in the second input following HFS delivered via the second electrode. Amplified fEPSPs were filtered (3 kHz), digitized (15 kHz), measured and plotted (FIG. 4A). Measurements of the slope of the fEPSP were taken between 20% and 80% of the peak amplitude. Slopes of fEPSPs were normalized with respect to the 20 min control period before tetanic stimulation. Compound (1) was used at various concentrations in these LTP experiments. […] FIG. 4B summarizes the effects of different compound (1) concentrations leading to different stoichiometric Aβ1-42/compound (1) ratios (10:1, 2:1, 1:5). The LTP signals (fEPSP potentiation) calculated as the average of the last 50-60 mins after HFS are presented as a bar diagram. […] The control experiment is defined as 100% normalized LTP response and the toxic effect of 50 nM Aβ1-42 oligomers is defined as 0% normalized LTP change. Using the usual stoichiometric excess for compound (1), namely 500 nM or 100 nM, leads to a weak detoxifying effect of 40.2% and 34.7%, respectively.

Entries after “also recorded” stand apart in the source; their conditions may differ. Non-standard residues stand in square brackets, D forms with d. Residues, ends and D or L forms follow the SMILES beside them. Aib = CC(C)(N)C(=O)O

T1 sequence (P05067 672-713 limits assumed): as above

In the case of `CC(C)(NC(=O)[C@H](N)Cc1c[nH]c2ccccc12)C(N)=O` [compound (1), (2R)-2-amino-N-(1-carbamomyl-1-methlyethyl)-3-(1H-indol-3-yl) propanamide] (H-[dW]-[Aib]-NH2), the “effect on Aβ1-42-suppressed in vivo LTP” value in experiment [1] (0.08 mg/kg s.c.) was “loss of the pharmacological effect”; in experiment [1] (0.4 mg/kg s.c.) it was “at least as potent efficacy on LTP; also recorded: fully restored LTP signal; also recorded: brought post-TBS responses towards those observed in control animals”; in experiment [1] (2 mg/kg s.c.) it was “brought post-TBS responses towards those observed in control animals; also recorded: normalizes the LTP signal”. Besides, the “PS amplitude 80-90 min after LTP induction” value in experiment [1] (0.08 mg/kg s.c. + i.c.v. oligomeric Aβ1-42, n=4) was 139.6±13.1 % of baseline; in experiment [1] (0.4 mg/kg s.c. + i.c.v. oligomeric Aβ1-42, n=6), 174.7±16.0 % of baseline; in experiment [1] (2 mg/kg s.c. + i.c.v. oligomeric Aβ1-42, n=7) it was 170.0±11.9 % of baseline. The “effect on Aβ1-42 toxicity in in vitro LTP” value is listed as “best prevented the detrimental effect of 50 nM Aβ1-42 on hippocampal LTP; also recorded: able to prevent LTP blockade; also recorded: blocks Aβ1-42 toxicity almost completely” in experiment [2] (10 nM compound (1)), “only partially alleviate the toxic effect of Aβ1-42” in experiment [2] (100 nM compound (1)) and “only partially alleviate the toxic effect of Aβ1-42” in experiment [2] (500 nM compound (1)). The “Relative effect size (blocking Aβ1-42 toxicity)” value in experiment [2] (10 nM compound (1), 50 nM Aβ1-42, ratio 1:5) is 88.1%; in experiment [2] (100 nM compound (1), 50 nM Aβ1-42, ratio 2:1), 34.7%; in experiment [2] (100 nM compound (1), 50 nM Aβ1-42, ratio 2:1, listed as Compound (1)) it was 34.7%; in experiment [2] (500 nM compound (1), 50 nM Aβ1-42, ratio 10:1), 40.2%; in experiment [2] (500 nM compound (1), 50 nM Aβ1-42, ratio 10:1, listed as Compound (1)), 40.2%. Moreover, in experiment [2] (10 nM compound (1), 90 min before HFS, no Aβ1-42), the “LTP induction in presence of compound alone” value is “allowed the induction of LTP”. Also, the “detoxifying effect in undersupply compared to stoichiometric excess” value in experiment [2] (10-fold undersupply (ratio 1:10) as worded, refers to Table 1) is recorded as “more than double as strong”. Besides, the “molecules of Aβ1-42 detoxified by 1 molecule of compound (1)” value in experiment [2] (efficacy at 10 nM vs 50 nM Aβ1-42) was 5.
